According to ChEMBL document CHEMBL4049409, “Structure-based discovery of LpxC inhibitors” (Bioorg Med Chem Lett, 2017):
≈ marks a conversion by molar mass, not a printed value.

Key:
Pseudomonas aeruginosa [1] = test: Antibacterial activity against Pseudomonas aeruginosa isolate 839 harboring mexAB-oprM deletion mutant; format: functional
Escherichia coli = test: Antibacterial activity against Escherichia coli isolate 35 ATCC 25922; format: functional
[2] = target: T1, UDP-3-O-acyl-N-acetylglucosamine deacetylase (Pseudomonas aeruginosa (strain ATCC 15692 / PAO1 / 1C / PRS 101 / LMG12228), UniProt P47205); test: Inhibition of LpxC in Pseudomonas aeruginosa isolate 847
T1 sequence (P47205 whole entry): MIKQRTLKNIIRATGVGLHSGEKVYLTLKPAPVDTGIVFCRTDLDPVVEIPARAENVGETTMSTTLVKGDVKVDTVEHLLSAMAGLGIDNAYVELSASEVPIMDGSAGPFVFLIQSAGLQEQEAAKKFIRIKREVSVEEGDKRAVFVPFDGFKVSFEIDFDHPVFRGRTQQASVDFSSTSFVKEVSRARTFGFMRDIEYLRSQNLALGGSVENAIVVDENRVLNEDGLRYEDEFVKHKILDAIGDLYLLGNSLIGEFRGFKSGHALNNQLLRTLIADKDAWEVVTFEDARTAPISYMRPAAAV

Pseudomonas aeruginosa [3] = test: Antibacterial activity against Pseudomonas aeruginosa isolate 44 ATCC 27853; format: functional
Acinetobacter baumannii = test: Antibacterial activity against Acinetobacter baumannii focus ID 961025; format: functional
Pseudomonas aeruginosa [4] = test: Antibacterial activity against Pseudomonas aeruginosa isolate 847; format: functional
[5] = target: T1, UDP-3-O-acyl-N-acetylglucosamine deacetylase; test: Inhibition of LpxC in Pseudomonas aeruginosa isolate 44 ATCC 27853
[6] = target: T2, UDP-3-O-acyl-N-acetylglucosamine deacetylase (Escherichia coli K-12, UniProt P0A725); test: Inhibition of LpxC in Escherichia coli isolate 35 ATCC 25922; design: species or system Escherichia coli ATCC 25922
T2 sequence (P0A725 whole entry): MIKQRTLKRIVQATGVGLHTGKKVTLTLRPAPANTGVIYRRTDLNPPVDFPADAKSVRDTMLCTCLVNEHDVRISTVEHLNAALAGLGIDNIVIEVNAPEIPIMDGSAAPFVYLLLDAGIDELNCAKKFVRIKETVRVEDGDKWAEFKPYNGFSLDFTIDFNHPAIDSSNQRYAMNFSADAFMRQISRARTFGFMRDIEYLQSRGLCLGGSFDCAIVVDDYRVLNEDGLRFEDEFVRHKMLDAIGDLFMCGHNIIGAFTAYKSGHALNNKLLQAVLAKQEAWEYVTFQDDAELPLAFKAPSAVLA

Klebsiella pneumoniae = test: Antibacterial activity against Klebsiella pneumoniae isolate 21 ATCC 4352; format: functional
[7] = Inhibition of LpxC in Acinetobacter baumannii focus ID 961025
[8] = Inhibition of LpxC in Klebsiella pneumoniae isolate 21 ATCC 4352

C[C@@H](O)[C@H](N[C@H]1CCc2cc(C#Cc3ccc(CN4CCOCC4)cc3)ccc21)C(=O)NO
MIC (Pseudomonas aeruginosa [1]): 0.25 µg/mL (≈ 0.556 µM)
MIC (Escherichia coli): < 0.125 µg/mL
IC50 [2]: 2 nM
MIC (Pseudomonas aeruginosa [3]): 8 µg/mL (≈ 17.8 µM)
MIC (Acinetobacter baumannii): 32 µg/mL (≈ 71.2 µM)
MIC (Pseudomonas aeruginosa [4]): 2 µg/mL (≈ 4.45 µM)
IC50 [5]: 3 nM
IC50 [6]: 2 nM
MIC (Klebsiella pneumoniae): < 0.125 µg/mL
IC50 [7]: 70 nM
IC50 [8]: 2 nM

CC(C)(N)[C@H](N[C@H]1CCc2cc(C#Cc3ccc(CN4CCOCC4)cc3)ccc21)C(=O)NO
MIC (Pseudomonas aeruginosa [1]): 0.25 µg/mL (≈ 0.54 µM)
MIC (Escherichia coli): 0.5 µg/mL (≈ 1.08 µM)
IC50 [2]: 1 nM
MIC (Pseudomonas aeruginosa [3]): 4 µg/mL (≈ 8.65 µM)
MIC (Pseudomonas aeruginosa [4]): 0.5 µg/mL (≈ 1.08 µM)
IC50 [5]: 6 nM
IC50 [6]: 2 nM

CC(C)(O)[C@H](N[C@H]1CCc2cc(C#Cc3ccc(CN4CCOCC4)cc3)ccc21)C(=O)NO
MIC (Pseudomonas aeruginosa [1]): 0.25 µg/mL (≈ 0.539 µM)
MIC (Escherichia coli): 0.25 µg/mL (≈ 0.539 µM)
IC50 [2]: 0.4 nM
MIC (Pseudomonas aeruginosa [3]): 32 µg/mL (≈ 69 µM)
IC50 [5]: 3 nM
IC50 [6]: 1 nM
MIC (Klebsiella pneumoniae): < 0.03 µg/mL

CC(C)(O)[C@H](N[C@H]1CCc2cc(C#Cc3ccc(CN4CCN(CCO)CC4)cc3)ccc21)C(=O)NO
MIC (Pseudomonas aeruginosa [1]): 0.5 µg/mL (≈ 0.987 µM)
MIC (Escherichia coli): 4 µg/mL (≈ 7.9 µM)
MIC (Pseudomonas aeruginosa [3]): 4 µg/mL (≈ 7.9 µM)
MIC (Pseudomonas aeruginosa [4]): 32 µg/mL (≈ 63.2 µM)
IC50 [5]: 14 nM
IC50 [6]: 41 nM
